# Assay results taken from publication PMC11314561, “Design and Synthesis of Novel Aminoindazole-pyrrolo[2,3-b]pyridine Inhibitors of IKKα That Selectively Perturb Cellular Non-Canonical NF-κB Signalling” (Molecules, 2024).
# Experiments:
# IKKα = target: T1, IKKα (Homo sapiens, UniProt O15111); assay: DELFIA kinase assay, IKKα; assay type: biochemical; conditions: DELFIA kinase assay
# T1 sequence (O15111 1-745): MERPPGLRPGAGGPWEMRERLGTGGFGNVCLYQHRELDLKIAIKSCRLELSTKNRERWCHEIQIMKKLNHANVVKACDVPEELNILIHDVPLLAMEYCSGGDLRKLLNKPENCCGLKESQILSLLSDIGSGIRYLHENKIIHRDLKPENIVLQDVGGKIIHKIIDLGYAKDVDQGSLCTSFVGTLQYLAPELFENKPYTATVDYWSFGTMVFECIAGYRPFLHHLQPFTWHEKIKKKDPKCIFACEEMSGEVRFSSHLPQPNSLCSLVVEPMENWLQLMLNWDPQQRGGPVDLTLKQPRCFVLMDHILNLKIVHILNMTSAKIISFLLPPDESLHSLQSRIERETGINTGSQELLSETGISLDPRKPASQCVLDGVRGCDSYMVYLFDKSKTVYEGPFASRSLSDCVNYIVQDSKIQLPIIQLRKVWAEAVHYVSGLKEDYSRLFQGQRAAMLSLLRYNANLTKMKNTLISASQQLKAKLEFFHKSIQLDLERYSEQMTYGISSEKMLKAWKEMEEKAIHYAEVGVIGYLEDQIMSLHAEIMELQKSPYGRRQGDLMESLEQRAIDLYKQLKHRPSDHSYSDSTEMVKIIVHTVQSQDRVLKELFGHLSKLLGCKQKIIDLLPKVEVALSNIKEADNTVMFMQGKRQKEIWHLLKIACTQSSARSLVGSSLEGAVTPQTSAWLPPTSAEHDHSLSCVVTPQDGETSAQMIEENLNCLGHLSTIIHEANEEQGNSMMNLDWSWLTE
# Excerpt: To examine the pyrrolo[2,3-b]pyridines as an alternative scaffold, we adopted the AIPP core because it had similar dimensions to SU909 (1), with HBD/HBA motifs positioned at the scaffold extremities to interact with both the hinge region and the G-loop wall of IKKα, a rationale we had previously proposed as the basis for imparting selectivity. A preliminary set of AIPP derivatives was designed and synthesised to explore its utility as an IKK-targeting scaffold, whilst incorporating additional functionality through which to introduce selectivity for the IKKα isoform (2–4; Figure 3). This was achieved by initially adopting two different approaches: either appending a hydrophobic moiety to the pyrrolo[2,3-b]pyridine motif as a fused form to afford the tricyclic derivatives 2 and 3, or as a phenyl substituent to introduce flexibility with respect to the central pyrrolo[2,3-b]pyridine moiety in 4. When assessed against IKKα and IKKβ using our in-house DELFIA kinase assay […] The pyrrolo[2,3-b]pyridine was bound to the hinge region in the classical HBA/HBD motif with the GK+3 amide backbone, whilst the aminoindazole projected towards the top of the pocket to interact with the G-loop (Figure 4A). […] In both isoforms, the 2-phenyl moiety protruded away from the hinge towards the exposed solvent area.
# (§1) IKKα and IKKβ inhibitory activity were determined using a dissociation-enhanced ligand fluorescent immunoassay (DELFIA) based on the protocol of HTScan™ IKKβ Kinase Assay (Cell Signaling Technology, Danvers, MA, USA) as described in [24].
# Turbidimetric solubility = assay type: physicochemical; conditions: pH 7.4, aqueous buffer, kinetic from dmso stock, 0.01 M phosphate-buffered saline pH7.4
# Method: Pharmacokinetic studies were contracted to Sygnature Discovery Limited. Turbidimetric Solubility was determined by diluting compound solutions (1 μM, 3 μM, 10 μM, 30 μM, 100 μM) prepared in DMSO into 0.01 M phosphate-buffered saline pH7.4. Turbidimetry was used as the endpoint by measuring absorbance at 620 nm.
# IKKβ = target: T2, IKKβ (Homo sapiens, UniProt O14920); assay: DELFIA kinase assay, IKKβ; assay type: biochemical; conditions: read-out: Ki Values IKKβ
# T2 sequence (O14920 1-756): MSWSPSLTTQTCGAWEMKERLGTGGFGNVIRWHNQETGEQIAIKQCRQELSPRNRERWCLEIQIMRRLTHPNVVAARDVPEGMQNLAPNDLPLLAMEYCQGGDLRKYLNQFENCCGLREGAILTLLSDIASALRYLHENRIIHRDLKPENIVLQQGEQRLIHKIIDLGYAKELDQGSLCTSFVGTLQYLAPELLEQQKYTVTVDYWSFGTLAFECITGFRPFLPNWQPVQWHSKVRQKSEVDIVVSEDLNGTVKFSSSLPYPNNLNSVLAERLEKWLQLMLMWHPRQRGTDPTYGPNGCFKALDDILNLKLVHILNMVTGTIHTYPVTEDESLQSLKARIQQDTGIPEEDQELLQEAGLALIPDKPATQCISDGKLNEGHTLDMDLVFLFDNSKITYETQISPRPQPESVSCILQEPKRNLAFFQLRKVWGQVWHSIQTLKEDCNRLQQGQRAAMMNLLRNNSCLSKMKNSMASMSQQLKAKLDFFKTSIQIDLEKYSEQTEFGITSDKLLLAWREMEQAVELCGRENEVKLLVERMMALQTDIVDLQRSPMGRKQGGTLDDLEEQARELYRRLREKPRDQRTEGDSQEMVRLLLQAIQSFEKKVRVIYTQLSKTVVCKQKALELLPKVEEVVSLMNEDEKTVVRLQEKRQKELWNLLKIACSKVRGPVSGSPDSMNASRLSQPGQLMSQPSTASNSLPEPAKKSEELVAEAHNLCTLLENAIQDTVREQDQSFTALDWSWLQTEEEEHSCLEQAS
# Method: as §1
# [1] = Mouse hepatocyte intrinsic clearance and half-life; assay type: in vitro ADME; conditions: mouse CD1 hepatocytes
# Method: Intrinsic clearance and half-life were determined using cryopreserved pooled mouse CD1 hepatocytes. Test compounds were analysed at 1 µM in Williams Media E buffer (0.01% DMSO) at a cell density of 0.5 × 10^6 cells mL^–1. Cells were incubated at 37 °C for one hour with shaking, and compound depletion was measured by LC-MS/MS at six time points (0.25, 5, 10, 20, 40, and 60 min).
smiles,measurement,setting,value
Nc1n[nH]c2ccc(-c3ccnc4[nH]c(-c5ccnc(OCc6ccncc6)c5)cc34)cc12 [Compound 6k],Ki,IKKα,6 nM
same,solubility,Turbidimetric solubility,> 100 µM
same,Ki,IKKβ,12 nM
same,half-life at 1 µM,[1]; cryopreserved pooled hepatocytes,2.02 h
same,Mouse Hepatocyte Clearance,[1]; 1 µM,11 μL/min/10^6 Cells
